“And” between values parts separate entries of the source, which are not always exact repeats. Equal entries are not always repeated.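 Following 48 hours of exposure in 96-well plates, responses at five concentrations were used to interpolate endpoints linearly. Abbreviation: GI50, concentration required for 50% inhibition of growth. TGI: concentration producing complete growth inhibition.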
Tests used:
Assay in all cases: NCI tumour cell line growth inhibition, 48 h
HCT-15 colon = tested on: HCT-15 colon
CCRF-CEM leukemia = tested on: CCRF-CEM leukemia
LOX IMVI melanoma = tested on: LOX IMVI melanoma
RXF 393 renal = tested on: RXF 393 renal
HCC-2998 colon = tested on: HCC-2998 colon
HOP-92 NSCLC = tested on: HOP-92 NSCLC
UO-31 renal = tested on: UO-31 renal
SK-MEL-2 melanoma = tested on: SK-MEL-2 melanoma
HS 578T breast = tested on: HS 578T breast
PC-3 prostate = tested on: PC-3 prostate

With `NC1=NN(c2ccccc2)C(=O)C1C(=O)C(=O)Nc1ccc(Cl)cc1` (centres undefined) the TGI (HCT-15 colon) was greater than 100 µM, the TGI (CCRF-CEM leukemia) was greater than 100 µM and the TGI (LOX IMVI melanoma) was greater than 100 µM. For the same compound, the TGI (RXF 393 renal) was greater than 100 µM, the TGI (HCC-2998 colon) was greater than 100 µM and the TGI (HOP-92 NSCLC) was greater than 100 µM. For the same compound, the TGI (UO-31 renal) was greater than 100 µM and the TGI (SK-MEL-2 melanoma) was greater than 100 µM.
`Nc1n[n+]([O-])c2cc([N+](=O)[O-])ccc2[n+]1[O-]` gave a TGI (HCT-15 colon) of 13.6 µM, a TGI (HS 578T breast) of 44 µM and a TGI (CCRF-CEM leukemia) of 9.74 µM. It also gave a TGI (LOX IMVI melanoma) greater than 100 µM, a TGI (PC-3 prostate) greater than 100 µM and a TGI (UO-31 renal) of 23.7 µM. The TGI (SK-MEL-2 melanoma) was 36.3 µM.
`C#CCN(N=O)C(=O)NC(CCCCNC(=O)OCc1ccccc1)C(=O)OCc1ccccc1` (centres undefined) gave a TGI (HCT-15 colon) of 47.2 µM, a TGI (CCRF-CEM leukemia) of 41.8 µM and a TGI (LOX IMVI melanoma) of 59.1 µM. The TGI (RXF 393 renal) was greater than 100 µM, the TGI (HCC-2998 colon) was greater than 100 µM and the TGI (HOP-92 NSCLC) was 32.6 µM. For the same compound, the TGI (UO-31 renal) was 87 µM and the TGI (SK-MEL-2 melanoma) was greater than 100 µM.
In the case of `O=S(=O)(C1=CC(S(=O)(=O)c2ccccc2)COC1)c1ccccc1` (centres undefined), the TGI (HCT-15 colon) is reported as greater than 100 µM, the TGI (CCRF-CEM leukemia) is reported as greater than 100 µM and the TGI (LOX IMVI melanoma) is reported as greater than 100 µM. For the same compound, the TGI (RXF 393 renal) was greater than 100 µM, the TGI (HCC-2998 colon) was greater than 100 µM and the TGI (UO-31 renal) was greater than 100 µM. The TGI (SK-MEL-2 melanoma) was greater than 100 µM.
In the case of `N#CCCN(CCC#N)c1ccc(/C=C(/NC(=O)c2cc([N+](=O)[O-])ccc2Cl)C(=O)N=[N+]=[N-])cc1`, the TGI (HCT-15 colon) is reported as greater than 100 µM, the TGI (CCRF-CEM leukemia) is reported as greater than 100 µM and the TGI (LOX IMVI melanoma) is reported as greater than 100 µM. The TGI (RXF 393 renal) was greater than 100 µM, the TGI (HCC-2998 colon) was greater than 100 µM and the TGI (UO-31 renal) was greater than 100 µM. The TGI (SK-MEL-2 melanoma) was greater than 100 µM.
With `O/N=C1/CCC/C1=C\c1ccccc1` the TGI (HCT-15 colon) was greater than 100 µM, the TGI (CCRF-CEM leukemia) was greater than 100 µM and the TGI (LOX IMVI melanoma) was greater than 100 µM. It also gave a TGI (RXF 393 renal) greater than 100 µM, a TGI (HCC-2998 colon) greater than 100 µM and a TGI (HOP-92 NSCLC) greater than 100 µM. The TGI (UO-31 renal) was greater than 100 µM and the TGI (SK-MEL-2 melanoma) was greater than 100 µM.
Compound `CC(=O)OC1C[C@H]2C(OC(=O)c3ccccc3)C3C4(OC(C)=O)COC4C[C@H](OC(C)=O)[C@@]3(C)C(OC(C)=O)[C@H](OC(C)=O)C(=C1C)C2(C)C` (some centres undefined) has a TGI (HCT-15 colon) greater than 100 µM, a TGI (CCRF-CEM leukemia) greater than 100 µM and a TGI (LOX IMVI melanoma) greater than 100 µM. For the same compound, the TGI (RXF 393 renal) was 49.3 µM, the TGI (UO-31 renal) was 79.8 µM and the TGI (SK-MEL-2 melanoma) was 97.8 µM.
In the case of `Nc1cn(C2OC(CC(c3ccccc3)(c3ccccc3)c3ccccc3)C(O)C2O)c(=O)[nH]c1=O` (centres undefined), the TGI (HCT-15 colon) is reported as 33.3 µM, the TGI (CCRF-CEM leukemia) is reported as 63.1 µM and the TGI (LOX IMVI melanoma) is reported as 35.2 µM. The TGI (RXF 393 renal) was 21.4 µM, the TGI (HCC-2998 colon) was 64.4 µM and the TGI (HOP-92 NSCLC) was 39 µM. For the same compound, the TGI (UO-31 renal) was greater than 100 µM and the TGI (SK-MEL-2 melanoma) was greater than 100 µM.
Compound `OCC1NC(COC2OC(CO)C(O)C(O)C2O)C(O)C(O)C1O` (centres undefined) has a TGI (HCT-15 colon) greater than 100 µM, a TGI (CCRF-CEM leukemia) greater than 100 µM and a TGI (RXF 393 renal) greater than 100 µM. It also gave a TGI (HCC-2998 colon) greater than 100 µM, a TGI (PC-3 prostate) greater than 100 µM and a TGI (HOP-92 NSCLC) greater than 100 µM. The TGI (UO-31 renal) was greater than 100 µM and the TGI (SK-MEL-2 melanoma) was greater than 100 µM.
With `O=C(CCc1nc(=S)[nH][nH]1)Nc1cc(Cl)ccc1Cl` the TGI (HCT-15 colon) was greater than 100 µM, the TGI (CCRF-CEM leukemia) was greater than 100 µM and the TGI (HCC-2998 colon) was greater than 100 µM. The TGI (HOP-92 NSCLC) was greater than 100 µM, the TGI (UO-31 renal) was greater than 100 µM and the TGI (SK-MEL-2 melanoma) was greater than 100 µM.
`NC(CCSCC(F)(F)F)C(=O)O` (centres undefined) was tested, and the TGI (HCT-15 colon) was greater than 100 µM, the TGI (CCRF-CEM leukemia) was greater than 100 µM and the TGI (LOX IMVI melanoma) was greater than 100 µM. For the same compound, the TGI (RXF 393 renal) was greater than 100 µM, the TGI (HCC-2998 colon) was greater than 100 µM and the TGI (HOP-92 NSCLC) was greater than 100 µM. For the same compound, the TGI (UO-31 renal) was greater than 100 µM.
Work on `CC(=O)NNc1nc(C)c(C(=O)NNC(=O)C(=O)Nc2ccc(Cl)c([N+](=O)[O-])c2)s1` yielded a TGI (HCT-15 colon) greater than 100 µM, a TGI (CCRF-CEM leukemia) of 56.8 µM and a TGI (LOX IMVI melanoma) greater than 100 µM. For the same compound, the TGI (HCC-2998 colon) was greater than 100 µM, the TGI (HOP-92 NSCLC) was greater than 100 µM and the TGI (UO-31 renal) was greater than 100 µM. For the same compound, the TGI (SK-MEL-2 melanoma) was greater than 100 µM.
`O=C(CCC(=O)Nc1ccccc1C(F)(F)F)N/N=C1\C(=N\NC(=O)CCC(=O)Nc2ccccc2C(F)(F)F)C(c2ccc3c(c2)OCO3)Oc2ccccc21` (centres undefined) showed a TGI (HCT-15 colon) greater than 100 µM, a TGI (CCRF-CEM leukemia) of 66.3 µM and a TGI (LOX IMVI melanoma) greater than 100 µM. For the same compound, the TGI (RXF 393 renal) was greater than 71.7 µM, the TGI (HCC-2998 colon) was greater than 100 µM and the TGI (HOP-92 NSCLC) was greater than 87.1 µM. The TGI (UO-31 renal) was greater than 100 µM and the TGI (SK-MEL-2 melanoma) was greater than 100 µM.
`Cc1ccc2c(c1)[n+](=O)c(C(=O)c1cccs1)c(C(F)(F)F)n2[O-]` was tested, and the GI50 (HCT-15 colon) was 0.753 µM and 0.618 µM, the TGI (HCT-15 colon) was 7 µM and 14.8 µM and the GI50 (CCRF-CEM leukemia) was 1.72 µM. For the same compound, the TGI (CCRF-CEM leukemia) was 50 µM, the GI50 (LOX IMVI melanoma) was 0.612 µM and 0.561 µM and the TGI (LOX IMVI melanoma) was 1.76 µM and 1.82 µM. The GI50 (HCC-2998 colon) was 0.638 µM and 0.238 µM, the TGI (HCC-2998 colon) was 2.1 µM and 0.559 µM and the GI50 (PC-3 prostate) was 0.528 µM and 1.38 µM. For the same compound, the GI50 (HOP-92 NSCLC) was 1.63 µM and 1.78 µM, the TGI (HOP-92 NSCLC) was 11.5 µM and 15.3 µM and the GI50 (UO-31 renal) was 1.35 µM. For the same compound, the TGI (UO-31 renal) was 50 µM and the TGI (SK-MEL-2 melanoma) was 50 µM and 18.6 µM.
`CCc1cccc(C(C)C)c1NC(=O)CC1Sc2ccccc2NC1=O` (centres undefined) gave a TGI (HCT-15 colon) greater than 100 µM, a TGI (CCRF-CEM leukemia) greater than 100 µM and a TGI (LOX IMVI melanoma) greater than 100 µM. It also gave a TGI (RXF 393 renal) of 96.3 µM, a TGI (HCC-2998 colon) greater than 100 µM and a TGI (HOP-92 NSCLC) of 95.3 µM. It also gave a TGI (UO-31 renal) greater than 100 µM and a TGI (SK-MEL-2 melanoma) greater than 100 µM.
In the case of `Cc1noc2cccc(O)c12`, the TGI (HCT-15 colon) is reported as greater than 100 µM, the TGI (CCRF-CEM leukemia) is reported as greater than 100 µM and the TGI (LOX IMVI melanoma) is reported as greater than 100 µM. The TGI (RXF 393 renal) was greater than 100 µM, the TGI (HCC-2998 colon) was greater than 100 µM and the TGI (HOP-92 NSCLC) was greater than 100 µM. It also gave a TGI (UO-31 renal) greater than 100 µM and a TGI (SK-MEL-2 melanoma) greater than 100 µM.
`COc1ccc(C(c2ccccc2C(=O)O)c2ccc(OC)c3ccccc23)c2ccccc12` showed a TGI (HCT-15 colon) of 28.8 µM, a TGI (CCRF-CEM leukemia) greater than 100 µM and a TGI (LOX IMVI melanoma) of 50.6 µM. The TGI (HCC-2998 colon) was 19.8 µM, the TGI (HOP-92 NSCLC) was 50.8 µM and the TGI (UO-31 renal) was 19.4 µM.
With `O=C1c2c(O)cccc2C(C(=O)CCCCCC(=O)C2c3cccc(O)c3C(=O)c3c(O)cccc32)c2cccc(O)c21` the GI50 (HCT-15 colon) was 7.25 µM, the TGI (HCT-15 colon) was 5.44 µM and 14.4 µM and the GI50 (CCRF-CEM leukemia) was 2.05 µM. For the same compound, the TGI (CCRF-CEM leukemia) was 25 µM and 13.6 µM, the GI50 (LOX IMVI melanoma) was 1.95 µM and the TGI (LOX IMVI melanoma) was 8.85 µM and 7.1 µM. The GI50 (HCC-2998 colon) was 2.83 µM, the TGI (HCC-2998 colon) was 25 µM and 12.7 µM and the TGI (HOP-92 NSCLC) was 16.8 µM. For the same compound, the GI50 (UO-31 renal) was 7.85 µM, the TGI (UO-31 renal) was 3.88 µM and 14.5 µM and the GI50 (SK-MEL-2 melanoma) was 1.83 µM. The TGI (SK-MEL-2 melanoma) was 3.61 µM and 6.64 µM.

Reference: PubChem BioAssay (NCI)
